Results: patent US6310095A, “Inhibitors of protein isoprenyl transferases” (University of Pittsburgh, priority 1998, dated 2001)
Counter-ions that a name gives are not always drawn.

The molecules below were run against T1, protein farnesyltransferase (Rattus norvegicus, UniProt Q02293+Q04631) (assay: in vitro inhibition of protein farnesyltransferase (scintillation proximity assay, biotin-K Ras B fragment)). Conditions: at 1 × 10^-6 M.
T1 construct: Rat brain protein farnesyltransferase activity is measured; from tissue; host or cells: rat brain; purified according to Reiss et al., Cell 62:81-88 (1990), steps one through three
Type: biochemical
How it was run: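 Scintillation proximity read-out of farnesylation, using a biotinylated K Ras B fragment (0.1 mM final) in place of biotin-lamin. Enzyme purified from rat brain; results given as % inhibition.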

Q: `CSCC[C@H](NC(=O)c1ccc(CN2CCN(C(=O)OC(C)(C)C)CC2)cc1-c1ccccc1C)C(=O)O` [Example 866] was tested. Which “% inhibition of farnesyltransferase” value did it give?
A: 62%

Q: With `CSCC[C@H](NC(=O)c1ccc(CN2CCN(c3ccccc3)CC2)cc1-c1ccccc1C)C(=O)O` [Example 867] as the molecule, how does the “% inhibition of farnesyltransferase” value read?
A: 71%

Q: For `CSCC[C@H](NC(=O)c1ccc(COCc2ccc(-c3ccc(F)cc3)o2)cc1-c1cccc2ccccc12)C(=O)[O-].[Li+]` [Example 868], which “% inhibition of farnesyltransferase” value is on record?
A: 89%

Same assay, conditions: at 1 × 10^-6 M; read-out: % inhibition of farnesyltransferase

Q: `CSCC[C@H](NC(=O)c1ccc(CN(Cc2ccco2)C(C)C)cc1-c1ccccc1C)C(=O)O` [Example 831, N-[4-N-(furan-2-ylmethyl)-N-isopropylaminomethyl-2-(2-methylphenyl)benzoyl]methionine lithium salt] was tested. Which inhibition at 1 µM did it give?
A: 92%

Q: With `CSCC[C@H](NC(=O)c1ccc(CN(Cc2ccoc2)C(C)C)cc1-c1ccccc1C)C(=O)O` [Example 832, N-[4-N-(furan-3-ylmethyl)-N-isopropylainomethyl-2-(2-methylphenyl)benzoyl]methionine lithium salt] as the molecule, how does the inhibition at 1 µM read?
A: 80%

Q: For `CSCC[C@H](NC(=O)c1ccc(CN(Cc2ccccc2)Cc2ccccc2)cc1-c1ccccc1)C(=O)O` [Example 834, N-[4-N,N-dibenzylaminomethyl-2-phenylbenzoyl]methionine lithium salt], which inhibition at 1 µM is on record?
A: 55%

Q: `CSCC[C@H](NC(=O)c1ccc(CN(CCc2ccccc2)C(C)C)cc1-c1ccccc1C)C(=O)O` [Example 835, N-[14-N-(2-phenylethyl)-N-isoprolpylaminomethyl-2-(2-methylphenyl)benzoyl]methionine lithium salt] was tested. Which inhibition at 1 µM did it give?
A: 96%

Q: For `CSCC[C@H](NC(=O)c1ccc(CN(Cc2ccccc2)c2ccccc2C(C)=O)cc1-c1ccccc1C)C(=O)O` [Example 844, N-[4-N-(N-benzyl-N-(2-acetylphenyl)aminomethyl)-2-(2-methylphenyl)benzoyl]methionine lithium salt], which inhibition at 1 µM is on record?
A: 92%

Q: Which inhibition at 1 µM does the source give for `CSCC[C@H](NC(=O)c1ccc(CN(Cc2ccccc2)c2ccccc2Cl)cc1-c1ccccc1C)C(=O)O` [Example 846, N-[4-N-(N-benzyl-N-(2-chlorophenyl)aminomethyl)-2-(2-methylphenyl)benzoyl]methionine lithium salt] here?
A: 85%

Q: `CSCC[C@H](NC(=O)c1ccc(CNc2ccc(N3CCCCC3)cc2)cc1-c1ccccc1C)C(=O)O` [Example 862, N-[4-N-(4-piperidin-1-ylphenyl)aminomethyl-2-(2-methylphenyl)benzoyl]methionine] was tested. Which inhibition at 1 µM did it give?
A: 95%

Same assay, conditions: at 1 × 10^-7 M

Q: `CSCC[C@H](NC(=O)c1ccc(/C=C/c2ccc(Oc3ccccc3Cl)cc2)cc1-c1ccccc1C)C(=O)O` [Example 854] was tested. Which “% inhibition of farnesyltransferase” value did it give?
A: 78%

Q: With `CSCC[C@H](NC(=O)c1ccc(CCc2ccc(Oc3ccccc3Cl)cc2)cc1-c1ccccc1C)C(=O)O` [Example 855] as the molecule, how does the “% inhibition of farnesyltransferase” value read?
A: 92%

Q: With `CSCC[C@H](NC(=O)c1ccc(/C=C/c2ccc(Oc3ccccc3[N+](=O)[O-])cc2)cc1-c1ccccc1C)C(=O)O` [Example 856] as the molecule, how does the “% inhibition of farnesyltransferase” value read?
A: 97%

Q: `CSCC[C@H](NC(=O)c1ccc(CCc2ccc(Oc3ccccc3N)cc2)cc1-c1ccccc1C)C(=O)O` [Example 857] was tested. Which “% inhibition of farnesyltransferase” value did it give?
A: 92%

Q: With `CSCC[C@H](NC(=O)c1ccc(CCc2ccc(Oc3cccc(Cl)c3)cc2)cc1-c1ccccc1C)C(=O)O` [Example 859] as the molecule, how does the “% inhibition of farnesyltransferase” value read?
A: 86%

Q: Which “% inhibition of farnesyltransferase” value does the source give for `CSCC[C@H](NC(=O)c1ccc(/C=C/c2ccc(Oc3cccc([N+](=O)[O-])c3)cc2)cc1-c1ccccc1C)C(=O)O` [Example 861] here?
A: 65%

Q: With `CSCC[C@H](NC(=O)c1ccc(COCc2ccc(-c3ccc(F)cc3)o2)cc1-c1ccc(F)cc1Cl)C(=O)[O-].[Li+]` [Example 869] as the molecule, how does the “% inhibition of farnesyltransferase” value read?
A: 92%

Same assay, conditions: at 1 × 10^-7 M; read-out: % inhibition of farnesyltransferase

Q: `COc1ccccc1N(Cc1ccccc1)Cc1ccc(C(=O)N[C@@H](CCSC)C(=O)O)c(-c2ccccc2C)c1` [Example 839, N-[4-(N-benzyl-N-(2-methoxyphenyl)aniinomethyl)-2-(2-methylphenyl)benzoyl]methionine lithium salt] was tested. Which inhibition at 0.1 µM did it give?
A: 63%

Q: Which inhibition at 0.1 µM does the source give for `CSCC[C@H](NC(=O)c1ccc(CNc2ccc(N3CCOCC3)cc2)cc1-c1ccccc1C)C(=O)O` [Example 863, N-[4-N-(4-morpholin-1-ylphenyl)aminomethyl-2-(2-methylphenyl)benzoyl]methionine] here?
A: 72%

Q: For `CSCC[C@H](NC(=O)c1ccc(CNc2ccc(Oc3ccccc3)cc2)cc1-c1ccccc1C)C(=O)O` [Example 864, N-[4-N-(4-phenoxyphenyl)aminomethyl-2-(2-methylphenyl)benzoyl]methionine], which inhibition at 0.1 µM is on record?
A: 84%

Same assay, conditions: at 1 × 10^-8 M

Q: How did the “% inhibition of farnesyltransferase” value turn out when `CSCC[C@H](NC(=O)c1ccc(COCc2oc(-c3ccc(Cl)cc3)c(Cl)c2Cl)cc1-c1ccccc1C)C(=O)[O-].[Li+]` [Example 829] was run?
A: 92%

Q: How did the “% inhibition of farnesyltransferase” value turn out when `CSCC[C@H](NC(=O)c1ccc(/C=C/c2ccc(Oc3cccc(Cl)c3)cc2)cc1-c1ccccc1C)C(=O)O` [Example 858] was run?
A: 60%

Q: For `CSCC[C@H](NC(=O)c1ccc(CCc2ccc(Oc3ccc(Cl)cc3)cc2)cc1-c1ccccc1C)C(=O)O` [Example 860], which “% inhibition of farnesyltransferase” value is on record?
A: 85%

Same assay, conditions: at 1 × 10^-8 M; read-out: % inhibition of farnesyltransferase

Q: With `COc1cccc(N(Cc2ccccc2)Cc2ccc(C(=O)N[C@@H](CCSC)C(=O)O)c(-c3ccccc3C)c2)c1` [Example 833, N-[4-N-benzyl-N-3-methoxyphenylaminomethyl-2-(2-methylphenyl)benzoyl]methionine lithium salt] as the molecule, how does the inhibition at 0.01 µM read?
A: 78%

Q: For `CSCC[C@H](NC(=O)c1ccc(CN(Cc2ccccc2)c2cncnc2)cc1-c1ccccc1C)C(=O)O` [Example 836, N-[4-N-benzyl-N-pyrimidin-5-ylaminomethyl-2-(2-methylphenyl)benzoyl]methionine lithium salt], which inhibition at 0.01 µM is on record?
A: 95%

Q: How did the inhibition at 0.01 µM turn out when `CSCC[C@H](NC(=O)c1ccc(CN(Cc2ccc3c(c2)OCO3)c2cncnc2)cc1-c1ccccc1C)C(=O)O` [Example 837, lithium salt] was run?
A: 91%

Q: For `CSCC[C@H](NC(=O)c1ccc(CN(Cc2ccc3c(c2)OCO3)c2cnccn2)cc1-c1ccccc1C)C(=O)O` [Example 838, N-[4-N-(1,3-benzodiox-5-yl)-N-pyridizin-2-ylaminomethyl-2-(2-methylphenyl)benzoyl]methionine lithium salt], which inhibition at 0.01 µM is on record?
A: 92%

Q: `COc1ccc(N(Cc2ccccc2)Cc2ccc(C(=O)N[C@@H](CCSC)C(=O)O)c(-c3ccccc3C)c2)cc1` [Example 840, N-[4-(N-benzyl-N-(4-methoxyphenyl)aaminomethyl)-2-(2-methylphenyl)benzoyl]methionine lithium salt] was tested. Which inhibition at 0.01 µM did it give?
A: 73%

Q: With `CSCC[C@H](NC(=O)c1ccc(CN(Cc2ccccc2)c2ccc([N+](=O)[O-])cc2)cc1-c1ccccc1C)C(=O)O` [Example 843, N-[4-(N-benzyl-N-(4-nitrophenyl)aninomethyl)-2-(2-methylphenyl)benzoyl]methionine lithium salt] as the molecule, how does the inhibition at 0.01 µM read?
A: 96%

Q: Which inhibition at 0.01 µM does the source give for `CSCC[C@H](NC(=O)c1ccc(CN(Cc2ccccc2)c2cccc(C(C)=O)c2)cc1-c1ccccc1C)C(=O)O` [Example 845, N-[4-N-(N-benzyl-N-(3-acetylphenyl)aninomethyl)-2-(2-methylphenyl)benzoyl]methionine lithium salt] here?
A: 85%

Q: With `CSCC[C@H](NC(=O)c1ccc(CN(Cc2ccccc2)c2cccc(Cl)c2)cc1-c1ccccc1C)C(=O)O` [Example 847, N-[4-N-(N-benzyl-N(3-chlorophenyl)aminomethyl)-2-(2-methylphenyl)benzoyl]methionine lithium salt] as the molecule, how does the inhibition at 0.01 µM read?
A: 85%

Q: With `CSCC[C@H](NC(=O)c1ccc(CN(Cc2ccccc2)c2ccc(Cl)cc2)cc1-c1ccccc1C)C(=O)O` [Example 848, N-[4-N-(N-benzyl-N-(4-chlorophenyl)aminomethyl)-2-(2-methylphenyl)benzoyl]methionine lithium salt] as the molecule, how does the inhibition at 0.01 µM read?
A: 87%

Q: `CSCC[C@H](NC(=O)c1ccc(CN(Cc2ccccc2)c2ccc(C(F)(F)F)cc2)cc1-c1ccccc1C)C(=O)O` [Example 853, N-[4-(N-benzyl-N-(4-trifluoromethylphenyl)aminomethvl)-2-(2-methylphenyl)benzoyl]methionine lithium salt] was tested. Which inhibition at 0.01 µM did it give?
A: 85%

Q: With `CSCC[C@H](NC(=O)c1ccc(CN(Cc2cncs2)S(=O)(=O)c2ccc(C)cc2)cc1-c1ccccc1C)C(=O)O` [Example 877] as the molecule, how does the inhibition at 0.01 µM read?
A: 68%

Same assay, conditions: read-out: % inhibition of farnesyltransferase

Q: With `CSCC[C@H](NC(=O)c1ccc(CN(Cc2ccccc2)c2cccc([N+](=O)[O-])c2)cc1-c1ccccc1C)C(=O)O` [Example 842, N-[4-(N-benzyl-N-(3-nitrophenyl)aminomethyl)-2-(2-methylphenyl)benzoyl]methionine lithium salt] as the molecule, how does the inhibition at 0.01 µM read?
A: 88%

Q: Which inhibition at 0.1 µM does the source give for `CSCC[C@H](NC(=O)c1ccc(CN(Cc2ccccc2)c2ccccc2[N+](=O)[O-])cc1-c1ccccc1C)C(=O)O` [Example 849, N-[4-(N-benzyl-N-(2-nitrophenyl)aminomethyl)-2-(2-methylphenyl)benzoyl]methionine lithium salt] here?
A: 66%

Q: How did the inhibition at 1 µM turn out when `CSCC[C@H](NC(=O)c1ccc(CN(Cc2ccccc2)c2ccccc2SC)cc1-c1ccccc1C)C(=O)O` [Example 850, N-[4-(N-benzyl-N-(2-methylthiophenyl)aminomethyl)-2-(2-methylphenyl)benzoyl]methionine lithium salt] was run?
A: 90%

Q: How did the inhibition at 0.01 µM turn out when `CSCC[C@H](NC(=O)c1ccc(CN(Cc2ccccc2)c2cccc(SC)c2)cc1-c1ccccc1C)C(=O)O` [Example 851, N-[4-(N-benzyl-N-(3-methylthiophenyl)aminomethyl)-2-(2-methylphenyl)benzoyl]methionine lithium salt] was run?
A: 82%

Q: How did the inhibition at 0.01 µM turn out when `CSCC[C@H](NC(=O)c1ccc(CN(Cc2ccccc2)c2ccc(SC)cc2)cc1-c1ccccc1C)C(=O)O` [Example 852, N-[4-(N-benzyl-N-(4-methylthiophenyl)aminomethyl)-2-(2-methylphenyl)benzoyl]methionine lithium salt] was run?
A: 79%
